This passage reports Ki results from patent US7250515B2, “Thiazolinone 3,4-disubstituted quinolines” (Hoffman-La Roche Inc., priority 2004, dated 2007).

Broadly, the Ki is a measure of affinity in units of concentration, obtained from inhibition or displacement.

Where a name gives a salt, the structure may show the parent alone.

This test deals with T1, recombinant human CDK1/Cyclin B complex (Homo sapiens, UniProt P06493).
T1 construct: made in house; host or cells: High Five insect cells (baculovirus); Rb substrate made in E. coli M15
T1 sequence (P06493 whole entry): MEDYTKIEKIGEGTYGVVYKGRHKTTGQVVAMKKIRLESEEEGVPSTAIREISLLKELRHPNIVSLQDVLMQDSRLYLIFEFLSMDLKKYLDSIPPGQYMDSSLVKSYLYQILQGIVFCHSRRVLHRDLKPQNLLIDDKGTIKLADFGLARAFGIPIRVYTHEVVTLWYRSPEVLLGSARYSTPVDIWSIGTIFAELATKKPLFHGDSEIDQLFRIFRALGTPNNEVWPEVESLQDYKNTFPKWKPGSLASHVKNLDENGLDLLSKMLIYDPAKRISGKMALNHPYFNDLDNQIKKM
T1 sequence (P14635 whole entry partner): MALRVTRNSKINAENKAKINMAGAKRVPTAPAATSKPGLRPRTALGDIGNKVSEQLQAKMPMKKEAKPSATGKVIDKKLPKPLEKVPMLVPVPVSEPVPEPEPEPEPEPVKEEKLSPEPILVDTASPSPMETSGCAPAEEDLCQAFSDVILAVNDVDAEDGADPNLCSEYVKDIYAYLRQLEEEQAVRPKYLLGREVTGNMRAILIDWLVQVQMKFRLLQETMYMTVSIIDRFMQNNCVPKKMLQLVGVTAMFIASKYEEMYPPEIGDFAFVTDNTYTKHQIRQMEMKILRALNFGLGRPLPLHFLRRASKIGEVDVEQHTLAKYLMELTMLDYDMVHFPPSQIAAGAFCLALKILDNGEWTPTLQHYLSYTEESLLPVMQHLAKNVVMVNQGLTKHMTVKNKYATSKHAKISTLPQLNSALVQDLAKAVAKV
The test is described as follows: CDK1/Cyclin B kinase assay (FlashPlate or HTRF), Rb protein substrate. Type of test: biochemical. The settings on record: Ki=IC50/(1+[S]/Km). On the procedure:
To determine inhibition of CDK1 activity, either FlashPlate™ (NEN™-Life Science Products) assay or HTRF assay was performed. Both types of kinase assays were carried out using recombinant human CDK1/Cyclin B complex. GST-cyclinB (GST-cycB) and CDK1cDNA clones in baculovirus vectors were provided by Dr. W. Harper at the Baylor College of Medicine, Houston, Tex. Proteins were co-expressed in High Five™ insect cells and the complex was purified on glutathione Sepharose resin (Pharmacia, Piscataway, N.J.) as previously described (Harper, J. W. et al. Cell 1993, 75, 805-816). A 6×-Histidine tagged truncated form of retinoblastoma (Rb) protein (amino acid 386-928) was used as the substrate for the CDK1/Cyclin B assay (the expression plasmid was provided by Dr. Veronica Sullivan, Department of Molecular Virology, Roche Research Centre, Welwyn Garden City, United Kingdom). The Rb protein is a natural substrate for phosphorylation by CDK1 (see Herwig and Strauss Eur. J. Biochem. Vol. 246 (1997) pp. 581-601 and the references cited therein). The expression of the 62 Kd protein was under the control of an IPTG inducible promoter in an M15 E. coli strain. Cells were lysed by sonication and purification was carried out by binding lysates at pH 8.0 to a Ni-chelated agarose column pretreated with 1 mM imidazole. The resin was then washed several times with incrementally decreasing pH buffers to pH 6.0, and eluted with 500 mM imidazole. Eluted protein was dialyzed against 20 mM HEPES pH 7.5, 30% glycerol, 200 mM NaCl, and 1 mM DTT. Purified Rb fusion protein stocks were quantitated for protein concentration, aliquoted, and stored at −70° C.
For the FlashPlate kinase assay, 96-well FlashPlates were coated with Rb protein at 10 μg/ml, using 100 μl per well. Plates were incubated at 4° C. overnight or at room temperature for 3 hours on a shaker. To control for nonspecific phosphorylation, one row of wells was coated with 100 μl/well coating buffer (20 mM HEPES, 0.2 M NaCl). Plates were then washed twice with wash buffer (0.01% Tween 20 in phosphate-buffered saline). Compounds to be tested (“test compounds”) were added to the wells at 5× final concentration. Reactions were initiated by immediate addition of 40 μl reaction mix (25 mM HEPES, 20 mM MgCl2, 0.002% Tween 20, 2 mM DTT, 1 μM ATP, 4 nM 33P-ATP) and a sufficient amount of enzyme to give counts that were at least 10-fold above background. Plates were incubated at room temperature on a shaker for 30 minutes. Plates were washed four times with the wash buffer, sealed, and counted on the TopCount scintillation counter (Packard Instrument Co., Downers Grove, Ill.]. The percent inhibition of Rb phosphorylation, which is a measure of the inhibition of CDK activity, was determined according to the following formula:
[formula] where “test compound” refers to the average counts per minute of the test duplicates, “nonspecific” refers to the average counts per minute when no CDK1/Cyclin B, etc., was added, and “total” refers to the average counts per minute when no compound was added. The IC50 value is the concentration of test compound that reduces by 50% the protein-kinase induced incorporation of the radiolabel under the test conditions described. The value of the inhibitor constant Ki is calculated by the following: Ki=IC50/(1+[S]/Km), where [S] is the ATP concentration and Km is Michaelis constant.
The Homofeneous Time Resolved Fluorescence (HTRF) kinase assay was carried out in 96-well polypropylene plates (BD Biosciences, Bedford, Mass.). Test compounds were first dissolved in DMSO, and then diluted in kinase assay buffer 1 (25 mM HEPES, pH7.0, 8 mM MgCl2, 1.5 mM DTT, and 162 μM ATP) with DMSO concentration at 15%. The CDK1/Cyclin B enzyme was diluted in kinase assay buffer 2 (25 mM HEPES, pH 7.0, 8 mM MgCl2, 0.003% Tween 20, 0.045% BSA, 1.5 mM DTT, and 0.675 μM Rb protein). […]
In general terms: In TR-FRET formats the signal depends on donor and acceptor labels being close together.
Turning to `COC(=O)c1cnc2ccc(/C=C3\SC(N[C@@H](CO)c4ccccc4)=NC3=O)cc2c1OC` [Example 5, 6-[2-((R)-2-Hydroxy-1-phenyl-ethylamino)-4-oxo-4H-thiazol-(5Z)-ylidenemethyl]-4-methoxy-quinoline-3-carboxylic acid methyl ester], the Ki stood at 179 nM.

Regarding `COc1c(C(=O)N(C)C)cnc2ccc(/C=C3\SC(N[C@@H]4C[C@H]4c4ccccc4)=NC3=O)cc12` [Example 10, 4-Methoxy-6-[4-oxo-2-((1R,2S)-2-phenyl-cyclopropylamino)-4H-thiazol-(5Z)-ylidenemethyl]-quinoline-3-carboxylic acid dimethylamide], the inhibition constant (Ki) was 958 nM.

`CCOc1c(C#N)cnc2ccc(/C=C3\SC(N)=NC3=O)cc12` [Example 15, 6-[2-Amino-4-oxo-4H-thiazol-(5Z)-ylidenemethyl]-4-ethoxy-quinoline-3-carbonitrile]: the Ki came out at 8 nM.

As to `CCOc1c(C#N)cnc2ccc(/C=C3\SC(NCCn4ccnc4)=NC3=O)cc12` [Example 20, 4-Ethoxy-6-[2-(2-imidazol-1-yl-ethylamino)-4-oxo-4H-thiazol-(5Z)-ylidenemethyl]-quinoline-3-carbonitrile], the Ki worked out at 228 nM.

For `CCOc1c(C#N)cnc2ccc(/C=C3\SC(NCCOCCOC)=NC3=O)cc12` [Example 25, 6-[2-[2-(2-methoxy-ethoxy)-ethylamino]-4-oxo-4H-thiazol-(5Z)-ylidenemethyl]-4-ethoxy-quinoline-3-carbonitrile], the Ki worked out at 1000 nM.

Turning to `N#Cc1cnc2ccc(/C=C3\SC(N)=NC3=O)cc2c1OC1CCNCC1` [Example 30, 6-[2-Amino-4-oxo-4H-thiazol-(5Z)-ylidenemethyl]-4-(piperidin-4-yloxy)-quinoline-3-carbonitrile hydrochloride], the Ki came to 184 nM.

Consider `CC(C)Sc1c(C#N)cnc2ccc(/C=C3\SC(N)=NC3=O)cc12` [Example 40, 6-[2-amino-4-oxo-4H-thiazol-(5Z)-ylidenemethyl]-4-isopropylsulfanyl-quinoline-3-carbonitrile], for which the Ki was determined as 16 nM.

Consider `N#Cc1cnc2ccc(/C=C3\SC(N)=NC3=O)cc2c1SCCCO` [Example 50, 6-[2-Amino-4-oxo-4H-thiazol-(5Z)-ylidenemethyl]-4-(3-hydroxy-propylsulfanyl)-quinoline-3-carbonitrile], for which the Ki came out at 65 nM.

For the compound `CC(C)Oc1c(C#N)cnc2ccc(/C=C3\SC(NN)=NC3=O)cc12` [Example 60, 6-[2-Hydrazino-4-oxo-4H-thiazol-(5Z)-ylidenemethyl]-4-isopropoxy-quinoline-3-carbonitrile hydrochloride salt], the Ki came to 28 nM.

For `CC(C)(C)COc1c(C#N)cnc2ccc(/C=C3\SC(NC4CC4)=NC3=O)cc12` [Example 70, 6-[2-Cyclopropylamino-4-oxo-4H-thiazol-(5Z)-ylidenemethyl]-4-(2,2-dimethyl-propoxy)-quinoline-3-carbonitrile], the Ki is 6 nM.

In the case of `CCCCOc1c(C#N)cnc2ccc(/C=C3\SC(N)=NC3=O)cc12` [Example 80, 6-[2-Amino-4-oxo-4H-thiazol-(5Z)-ylidenemethyl]-4-butoxy-quinoline-3-carbonitrile], the Ki was 1 nM.
